This note sets out measurements from paper PMC5856786, “A DHODH inhibitor increases p53 synthesis and enhances tumor cell killing by p53 degradation blockage” (Nature Communications, 2018).

Where two headings read alike, the source gives them in different places.

Data set [1] relates to H1299 p53-null xenograft tumors. Description: H1299 p53-null xenograft. Format: in vivo, mice. An excerpt:
Error bars illustrate ± SEM with significance determined by Multiple Student’s t-tests. […] See supplementary information for detailed description of protocol. d) Pharmacokinetic study examining the effect of co-administration of nutlin-3a and (R)-HZ05 on the plasma concentration of nutlin-3a over time. See supplementary information for detailed description of protocol. e) In vivo activity of (R)- HZ05 alone and in combination with nutlin-3 on H1299 p53-null xenograft tumors (n ≥ 6). […] In the tumor volume graph, (**) on day 4 indicates a statistical difference of Control to HZ05 and to nutlin-3a; (*) on day 7 indicates a difference between Control and nutlin-3a; and (**) on day 12 indicates a statistical difference between Control, […] 19

The nature of data set [2]: In vivo pharmacokinetic parameters of (R)-HZ05. The conditions noted are these: for AUC(0-inf) / Cmax / Tmax / AUC / half-life / BA (%): mice; for AUC: read-out: AUC 0-h; for half-life: read-out: t (h) (half-life) (converted). Further details: species or system C57B1/6N mice. The procedure:
Waters Acquity UPLC (Waters Corp.) was used for all LC/MS and LC/MS/MS experiments. For chromatographic separation a general gradient was used (5 % mobile phase B to 90 % over 2 min total run) on a C18 BEH 1.7 µm column 2 × 50 mm (Waters Corp.). Mobile phase A consisted of 5 % acetonitrile 0.1 % formic acid and mobile phase B 100 % acetonitrile 0.1 % formic acid. The flow rate was 0.5 mL min-1 and 3 µL of the sample was injected. A standard curve between 3−1000 nM was prepared for each compound. […]
In vivo Pharmacokinetic Parameter Determination
(R)-HZ05 was formulated for subcutaneous and oral administration at 5 mg mL-1 in 20 % hydroxypropyl-β-cyclodextrin in PBS and formulated at 5 mg mL-1 diluted in physiological NaCl. […]
Blood was collected […]
in EDTA tubes from three mice per time point and stored on ice with plasma separated within 30 min by centrifugation at 2000 g and stored at –80 ° C until analysis at 0.08, 0.25, 0.5, 1, 2, 3, 4, 6 and 24 h post administration. […] internal standard (9 nM warfarin) was added to each plasma sample and each sample was shaken at RT for 10 min followed by centrifugation at 2000 g for 30 min at 4 °C. […] of sample was injected into an Acquity UPLC coupled to a triple quadrupole mass spectrometer (Waters) operated in MRM mode with positive electrospray ionization. MRM transition 381.09 > […]
CV and 40 V for CE) as a qualifier ion. Transition for internal standard was 309.16 > 163.005 (22 V for CV and 14 V for CE). Ion source conditions were: capillary voltage, 2000 V; desolvation temperature, 500 °C; desol vation gas flow rate, 1000 L h-1. Separation was conducted using a BEH C18 column (2.1 × 50 mm, 1.7 µm, Waters) using a linear gradient: 0 – 0.5 min, 5 % B; […], 100 % B, 1.61–2.00 min, 5 % B. Mobile phase A was 5 % acetonitrile with 0.1 % formic acid and B […]
All animal experimentation was carried out by Sweden
Contract In vivo Design AB in compliance with 2010/63/EU directive and approved by Stockholms Norra Djurförsöksetiska Nämnd (laboratory animal eth ical committee Stockholm) with the approval number N61/15. Any single plasma concentration value deviated by >10 times from the other two values was excluded from the pharmacokinetic evaluation, but was included in the figure. […]

The target of data set [3] is recombinant human DHODH (Homo sapiens, UniProt Q02127). As to the kind of experiment: Kinetic DHODH enzyme assay (3,4-dimethoxy-5-methyl-p-benzoquinone, DCIP). Format: biochemical. Further details: made in house. To be noted: Fig. 5a; average of three independent repeats ± SD. The method, then: In Fig. 5a enzyme assays were optimized and performed with 6 nM recombinant human DHODH prepared as described. The reaction mixture for these kinetic assays consisted of 1 mM DL-dihydroorotic acid, 100 µM 3,4-dimethoxy-5-methyl-p-benzoquinone (#D9150, Sigma-Aldrich), and 100 µM DCIP in enzyme buffer. A stock solution of 20 mM DCIP was prepared in enzyme buffer and filtered through filter paper (20–25 μm pore size) just before use. Loss in absorbance by DCIP was measured at 595 nm at RT in a stepped time course (8 × 2 min, 8 × 3 min, 6 × 5 min). […] Therefore, for each concentration of inhibitor tested, a value for DHODH’s Vmax was estimated by linear regression within this time frame.

[4] abbreviates: female, C57B1/6N, mouse, plasma, iv, i.v, dose 5 mg kg-1.
Where [5] appears, read: female, C57B1/6N, mouse, plasma, po, p.o, dose 50 mg kg-1.
Where [6] appears, read: female, C57B1/6N, mouse, plasma, sc, s.c, dose 50 mg kg-1.

Sequence of recombinant human DHODH (Q02127 29-395 limits assumed): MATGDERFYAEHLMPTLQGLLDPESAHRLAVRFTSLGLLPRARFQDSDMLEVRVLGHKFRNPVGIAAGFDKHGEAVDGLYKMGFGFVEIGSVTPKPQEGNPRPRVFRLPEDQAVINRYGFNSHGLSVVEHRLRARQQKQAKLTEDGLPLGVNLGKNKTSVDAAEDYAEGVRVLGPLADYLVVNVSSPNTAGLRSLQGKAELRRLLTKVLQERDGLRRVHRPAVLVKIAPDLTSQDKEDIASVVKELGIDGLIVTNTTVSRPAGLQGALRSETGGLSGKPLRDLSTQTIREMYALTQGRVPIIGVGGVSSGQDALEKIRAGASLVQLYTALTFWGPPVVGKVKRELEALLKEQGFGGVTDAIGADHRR

Consider `O=C(N[C@@H]1CCCc2c1cnn2-c1ccccc1F)c1onc2c1CCCC2` [(R)-HZ05], for which, in data set [1], the “synergy with nutlin-3a in p53-null xenograft” value is “no synergy”. Moreover, the clearance in data set [2] (female, C57B1/6N, mouse, plasma, iv, 5 mg kg-1, mice, i.v) was 5.4 L/h/kg. The Vd in data set [2] (female, C57B1/6N, mouse, plasma, iv, 5 mg kg-1, mice, i.v, read-out: Vd) came out at 8.3 L/kg. Besides, the Vd in data set [2] (female, C57B1/6N, mouse, plasma, iv, 5 mg kg-1, mice, i.v, read-out: Vss) was found to be 3.6 L/kg. In data set [2] (setting [4]), the area under the curve AUC(0-inf) is 2.4 µM·h, the Cmax was determined as 6.1 µM, the Tmax came to 4.8 min and the AUC stood at 2.4 µM·h. Further, the half-life in data set [2] (setting [4]) was 1.1 h. In data set [2] (setting [5]), the AUC(0-inf) was found to be 9.9 µM·h, the Cmax was 7.5 µM, the Tmax turned out to be 15 min and the AUC was found to be 9.9 µM·h. Further, the half-life in data set [2] (setting [5]) is 2.9 h. In data set [2] (setting [6]), the AUC(0-inf) was 30 µM·h, the peak level (Cmax) was 14.9 µM, the Tmax was determined as 30 min and the AUC came out at 30 µM·h. Moreover, the half-life in data set [2] (setting [6]) is 2.5 h. Moreover, in data set [2] (p.o, dose 50 mg kg-1), the “BA (%)” value stood at 41%. Besides, the “BA (%)” value in data set [2] (s.c, dose 50 mg kg-1) was greater than 100%. Further, in data set [3], the IC50 came to 0.011 ± 0.00094 µM.
